From patent US20150322051A1, “Macrocyclic picolinamides as fungicides” (Dow AgroSciences LLC, priority 2014, published 2015) come the findings set out here.

Structures are written as SMILES. Like-named read-outs stand apart in the source and are kept apart here.

Assay [1] relates to Puccinia triticina; synonym: Puccinia recondita f. sp. tritici (PUCCRT). Nature of the assay: Wheat brown rust (PUCCRT) whole-plant fungicidal test. The assay is classed as in vivo. The following applies: topical; for pest or weed control at 100 ppm: high volume application; for pest or weed control at 121.5 g/ha: low volume (track spray) application, 121.5 g/H. The protocol:
All fungicides were evaluated using the aforementioned method for their activity vs. all target diseases, unless stated otherwise. Wheat leaf blotch and brown rust activity were also evaluated using track spray applications, in which case the fungicides were formulated as EC formulations, containing 0.1% Trycol 5941 in the spray solutions. Wheat plants (variety Yuma) were grown from seed in a greenhouse in 50% mineral soil/50% soil-less Metro mix until the first leaf was fully emerged, with 7-10 seedlings per pot. These plants were inoculated with an aqueous spore suspension of Septoria tritici either prior to or after fungicide treatments. After inoculation the plants were kept in 100% relative humidity (one day in a dark dew chamber followed by two to three days in a lighted dew chamber at 20° C.) to permit spores to germinate and infect the leaf. The plants were then transferred to a greenhouse set at 20° C. for disease to develop. When disease symptoms were fully expressed on the 1st leaves of untreated plants, infection levels were assessed on a scale of 0 to 100 percent disease severity. Percent disease control was calculated using the ratio of disease severity on treated plants relative to untreated plants. Wheat plants (variety Yuma) were grown from seed in a greenhouse in 50% mineral soil/50% soil-less Metro mix until the first leaf was fully emerged, with 7-10 seedlings per pot. These plants were inoculated with an aqueous spore suspension of Puccinia triticina either prior to or after fungicide treatments. […] The plants were then transferred to a greenhouse set at 24° C. for disease to develop. Fungicide formulation, application and disease assessment followed the procedures as described in the Example A.

Assay [2] concerns Mycosphaerella graminicola; anamorph: Septoria tritici (SEPTTR). Nature of the assay: Leaf blotch of wheat (SEPTTR) whole-plant fungicidal test. The assay is classed as in vivo. The following applies: Zymoseptoria tritici, topical; for pest or weed control at 100 ppm: high volume application; for pest or weed control at 121.5 g/ha: low volume (track spray) application, 121.5 g/H. On the procedure: All fungicides were evaluated using the aforementioned method for their activity vs. all target diseases, unless stated otherwise. Wheat leaf blotch and brown rust activity were also evaluated using track spray applications, in which case the fungicides were formulated as EC formulations, containing 0.1% Trycol 5941 in the spray solutions. Wheat plants (variety Yuma) were grown from seed in a greenhouse in 50% mineral soil/50% soil-less Metro mix until the first leaf was fully emerged, with 7-10 seedlings per pot. These plants were inoculated with an aqueous spore suspension of Septoria tritici either prior to or after fungicide treatments. After inoculation the plants were kept in 100% relative humidity (one day in a dark dew chamber followed by two to three days in a lighted dew chamber at 20° C.) to permit spores to germinate and infect the leaf. The plants were then transferred to a greenhouse set at 20° C. for disease to develop. When disease symptoms were fully expressed on the 1st leaves of untreated plants, infection levels were assessed on a scale of 0 to 100 percent disease severity. Percent disease control was calculated using the ratio of disease severity on treated plants relative to untreated plants.

Where [3] appears, read: 24 h, 1 Day Protectant, read-out: High Volume activity at 100 ppm PUCCRT 1DP (% disease control rating).
Setting [4] is: 24 h, 1 Day Protectant, read-out: Low Volume activity at 121.5 g/H PUCCRT 1DP (% disease control rating).
[5] abbreviates: 72 h, 3 Day Curative, read-out: High Volume activity at 100 ppm PUCCRT 3DC (% disease control rating).
Where [6] appears, read: 72 h, 3 Day Curative, read-out: Low Volume activity at 121.5 g/H PUCCRT 3DC (% disease control rating).
[7] abbreviates: 24 h, 1 Day Protectant, read-out: High Volume activity at 100 ppm SEPTTR 1DP (% disease control rating).
[8] abbreviates: 24 h, 1 Day Protectant, read-out: Low Volume activity at 121.5 g/H SEPTTR 1DP (% disease control rating).
Where [9] appears, read: 72 h, 3 Day Curative, read-out: High Volume activity at 100 ppm SEPTTR 3DC (% disease control rating).
[10] abbreviates: 72 h, 3 Day Curative, read-out: Low Volume activity at 121.5 g/H SEPTTR 3DC (% disease control rating).

As to `CCCC[C@@H]1[C@@H](Cc2ccccc2)CCC[C@H](NC(=O)c2nccc(OC)c2OC(C)=O)C(=O)O[C@H]1C` [Compound 1, 2-(((3S,7R,8R,9S)-7-benzyl-8-butyl-9-methyl-2-oxooxonan-3-yl)carbamoyl)-4-methoxypyridin-3-yl acetate], the pest or weed control at 100 ppm in assay [1] (setting [3]), in assay [1] (setting [5]), in assay [2] (setting [7]) and in assay [2] (setting [9]) was over 70% in each case. Further, the pest or weed control at 121.5 g/ha in assay [1] (setting [4]) was over 70%; in assay [1] (setting [6]), under 70%; in assay [2] (setting [8]), over 70%; in assay [2] (setting [10]), over 70%.
On to `CCCC[C@@H]1[C@@H](Cc2ccccc2)CCC[C@H](NC(=O)c2nccc(OC)c2OCOC(C)=O)C(=O)O[C@H]1C` [Compound 2, ((2-(((3S,7R,8R,9S)-7-benzyl-8-butyl-9-methyl-2-oxooxonan-3-yl)carbamoyl)-4-methoxypyridin-3-yl)oxy)methyl acetate], for which the pest or weed control at 100 ppm in assay [1] (setting [3]), in assay [1] (setting [5]), in assay [2] (setting [7]) and in assay [2] (setting [9]) was over 70% each time. The pest or weed control at 121.5 g/ha is over 70% in assay [1] (setting [4]), under 70% in assay [1] (setting [6]), over 70% in assay [2] (setting [8]) and over 70% in assay [2] (setting [10]).
As to `COc1ccnc(C(=O)N[C@H]2CCC[C@H](CCC(C)C)[C@@H](Cc3ccccc3)[C@H](C)OC2=O)c1OC(C)=O` [Compound 4], the pest or weed control at 121.5 g/ha was over 70% in assay [1] (setting [4]), under 70% in assay [1] (setting [6]), over 70% in assay [2] (setting [8]) and over 70% in assay [2] (setting [10]).
Turning to `COc1ccnc(C(=O)N[C@H]2CCC[C@H](Cc3ccccc3)[C@@H](Cc3ccccc3)[C@H](C)OC2=O)c1OC(C)=O` [Compound 5], the pest or weed control at 121.5 g/ha in assay [1] (setting [4]), in assay [1] (setting [6]), in assay [2] (setting [8]) and in assay [2] (setting [10]) was over 70% each time.
For the molecule `COc1ccnc(C(=O)N[C@H]2CCC[C@H](Cc3ccccc3)[C@@H](Cc3ccccc3)[C@H](C)OC2=O)c1OCOC(C)=O` [Compound 6], the pest or weed control at 121.5 g/ha in assay [1] (setting [4]), in assay [1] (setting [6]), in assay [2] (setting [8]) and in assay [2] (setting [10]) was over 70% in each case.
Consider `COc1ccnc(C(=O)N[C@H]2CCC[C@H](Cc3ccccc3)[C@@H](Cc3ccccc3)[C@H](C)OC2=O)c1OCOC(=O)C(C)C` [Compound 7, ((2-(((3S,7R,8R,9S)-7,8-dibenzyl-9-methyl-2-oxooxonan-3-yl)carbamoyl)-4-methoxypyridin-3-yl)oxy)methyl isobutyrate], for which the pest or weed control at 121.5 g/ha in assay [1] (setting [4]), in assay [1] (setting [6]), in assay [2] (setting [8]) and in assay [2] (setting [10]) was over 70% in each case.
In the case of `CCOCC(=O)OCOc1c(OC)ccnc1C(=O)N[C@H]1CCC[C@H](Cc2ccccc2)[C@@H](Cc2ccccc2)[C@H](C)OC1=O` [Compound 8, ((2-(((3S,7R,8R,9S)-7,8-dibenzyl-9-methyl-2-oxooxonan-3-yl)carbamoyl)-4-methoxypyridin-3-yl)oxy)methyl 2-ethoxyacetate], the pest or weed control at 121.5 g/ha in assay [1] (setting [4]) is over 70%; in assay [1] (setting [6]) it was under 70%; in assay [2] (setting [8]), over 70%; in assay [2] (setting [10]) it was over 70%.
On to `COc1ccnc(C(=O)N[C@H]2CCC[C@H](Cc3ccccc3)[C@@H](C3CCCC3)[C@H](C)OC2=O)c1OC(C)=O` [Compound 9], for which the pest or weed control at 121.5 g/ha was over 70% in assay [1] (setting [4]), under 70% in assay [1] (setting [6]), over 70% in assay [2] (setting [8]) and over 70% in assay [2] (setting [10]).
`COc1ccnc(C(=O)N[C@H]2CCC[C@H](Cc3ccccc3)[C@@H](C3CCCC3)[C@H](C)OC2=O)c1OCOC(C)=O` [Compound 10]: the pest or weed control at 121.5 g/ha in assay [1] (setting [4]), in assay [1] (setting [6]), in assay [2] (setting [8]) and in assay [2] (setting [10]) was over 70% each time.
Regarding `COc1ccnc(C(=O)N[C@H]2CCC[C@H](Cc3ccc(Cl)cc3)[C@@H](CC(C)C)[C@H](C)OC2=O)c1OCOC(C)=O` [Compound 12], the pest or weed control at 121.5 g/ha in assay [1] (setting [4]) was over 70%; in assay [1] (setting [6]), under 70%; in assay [2] (setting [8]), over 70%; in assay [2] (setting [10]), over 70%.
Consider `COc1ccnc(C(=O)N[C@H]2CCC[C@H](Cc3ccc(Cl)cc3)[C@@H](CC(C)C)[C@H](C)OC2=O)c1OC(C)=O` [Compound 13], for which the pest or weed control at 121.5 g/ha was over 70% in assay [1] (setting [4]), under 70% in assay [1] (setting [6]), over 70% in assay [2] (setting [8]) and over 70% in assay [2] (setting [10]).
Take `COc1ccnc(C(=O)N[C@H]2CCC[C@H](Cc3ccccc3)[C@@H](CCc3ccccc3)[C@H](C)OC2=O)c1OCOC(C)=O` [Compound 15]: the pest or weed control at 121.5 g/ha in assay [1] (setting [4]) is over 70%; in assay [1] (setting [6]), under 70%; in assay [2] (setting [8]), over 70%; in assay [2] (setting [10]), over 70%.
Turning to `CCOCC(=O)OCOc1c(OC)ccnc1C(=O)N[C@H]1CCC[C@H](Cc2ccccc2)[C@@H](CCc2ccccc2)[C@H](C)OC1=O` [Compound 16], the pest or weed control at 121.5 g/ha in assay [1] (setting [4]), in assay [1] (setting [6]), in assay [2] (setting [8]) and in assay [2] (setting [10]) was over 70% each time.
For the molecule `COc1ccnc(C(=O)N[C@H]2CCC[C@H](Cc3ccccc3)[C@@H](CCc3ccccc3)[C@H](C)OC2=O)c1OCOC(=O)C(C)C` [Compound 17], the pest or weed control at 121.5 g/ha in assay [1] (setting [4]) is over 70%; in assay [1] (setting [6]), under 70%; in assay [2] (setting [8]) it was over 70%; in assay [2] (setting [10]), over 70%.
As for `COc1ccnc(C(=O)N[C@H]2CCC[C@H](Cc3ccccc3)[C@@H](CCc3ccccc3)[C@H](C)OC2=O)c1OC(C)=O` [Compound 18], the pest or weed control at 121.5 g/ha in assay [1] (setting [4]) is under 70%; in assay [1] (setting [6]), under 70%; in assay [2] (setting [8]) it was over 70%; in assay [2] (setting [10]), over 70%.
As for `CCOCC(=O)OCOc1c(OC)ccnc1C(=O)N[C@H]1CCC[C@H](Cc2ccc(Cl)cc2)[C@@H](Cc2ccccc2)[C@H](C)OC1=O` [Compound 20], the pest or weed control at 121.5 g/ha was over 70% in assay [1] (setting [4]), over 70% in assay [1] (setting [6]), over 70% in assay [2] (setting [8]) and under 70% in assay [2] (setting [10]).
Consider `COc1ccnc(C(=O)N[C@H]2CCC[C@H](Cc3ccc(Cl)cc3)[C@@H](Cc3ccccc3)[C@H](C)OC2=O)c1OC(C)=O` [Compound 21], for which the pest or weed control at 121.5 g/ha in assay [1] (setting [4]) is over 70%; in assay [1] (setting [6]), under 70%; in assay [2] (setting [8]) it was over 70%; in assay [2] (setting [10]), under 70%.
In the case of `COc1ccnc(C(=O)N[C@H]2CCC[C@H](Cc3ccc(C(F)(F)F)cc3)[C@@H](CC(C)C)[C@H](C)OC2=O)c1OC(C)=O` [Compound 22], the pest or weed control at 121.5 g/ha in assay [1] (setting [4]) was over 70%; in assay [1] (setting [6]) it was under 70%; in assay [2] (setting [8]), over 70%; in assay [2] (setting [10]), under 70%.
